Measurements: ChEMBL document CHEMBL1201862, “PubChem BioAssay data set” (2004)
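Each compound was tested at five concentrations against cells in 96-well plates for 48 hours. At the GI50, growth is halved.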 Active and inactive are the calls of the source. No stated cut-off is given here; in the data, active = GI50 up to about 1.1 µM and inactive = higher.

Key:
Experiment in all cases: DTP human tumour cell line panel, 48 h
[1] = test system: MDA-MB-435
[2] = test system: KM12
[3] = test system: RXF 393
[4] = test system: PC-3
[5] = test system: NCI/ADR-RES
[6] = test system: HOP-62
[7] = test system: OVCAR-8
[8] = test system: NCI-H522
[9] = test system: SK-MEL-2
[10] = test system: HT-29
[11] = test system: CCRF-CEM
[12] = test system: UACC-257
[13] = test system: DU-145
[14] = test system: BT-549
[15] = test system: SF-268
[16] = test system: SF-295
[17] = test system: HCC 2998
[18] = test system: ACHN
[19] = test system: SK-MEL-28
[20] = test system: LXFL 529

Row | Structure (SMILES) | GI50 [1] | GI50 [2] | GI50 [3] | GI50 [4] | GI50 [5] | GI50 [6] | GI50 [7] | GI50 [8] | GI50 [9] | GI50 [10] | GI50 [11] | GI50 [12] | GI50 [13] | GI50 [14] | GI50 [15] | GI50 [16] | GI50 [17] | GI50 [18] | GI50 [19] | GI50 [20]
1 | COC(=O)c1ccccc1C1CN=NC12Cc1cc(C)ccc1C2=O (centres undefined) | 62.4 µM (inactive) | 92.9 µM (inactive) | > 100 µM (inactive) | 94.4 µM (inactive) | 49.9 µM (inactive) | > 100 µM (inactive) | > 100 µM (inactive) | 63.8 µM (inactive) | > 100 µM (inactive) | > 100 µM (inactive) | > 100 µM (inactive) | > 100 µM (inactive) | > 100 µM (inactive) | > 100 µM (inactive) | > 100 µM (inactive) | > 100 µM (inactive) | > 100 µM (inactive) | > 100 µM (inactive) | > 100 µM (inactive) | 
2 | C=CCNC1=C2C[C@@H](C)C[C@@H](OC)C(OC(=O)CCCN(C)C)[C@H](C)/C=C(\C)[C@@H](OC(N)=O)[C@H](OC)/C=C\C=C(/C)C(=O)NC(=CC1=O)C2=O (some centres undefined) | 10.6 µM (inactive) | 4.07 µM (inactive) | 3.98 µM (inactive) | 4.98 µM (inactive) | 21.8 µM (inactive) | 9.95 µM (inactive) | 4.1 µM (inactive) | 8.07 µM (inactive) | 12.6 µM (inactive) | 2.7 µM (inactive) | 8.95 µM (inactive) | 12.9 µM (inactive) | 5.02 µM (inactive) | 13.4 µM (inactive) | 12.6 µM (inactive) | 7.57 µM (inactive) | 4.6 µM (inactive) | 7.48 µM (inactive) | 13.7 µM (inactive) | 
3 | Cn1nc(-c2ccccc2)c2c(/C=C/c3ccc(F)cc3)onc2c1=O |  |  | 23.3 µM (inactive) |  |  | > 100 µM (inactive) | 38.1 µM (inactive) | 17.5 µM (inactive) |  | 29.3 µM (inactive) | > 100 µM (inactive) |  |  |  | > 100 µM (inactive) |  |  | 24.1 µM (inactive) | > 100 µM (inactive) | > 100 µM (inactive)
4 | CCCCCCOc1ccc(C(=O)NOCc2ccccc2)cc1 | 41.3 µM (inactive) | > 100 µM (inactive) | > 100 µM (inactive) | > 100 µM (inactive) | > 100 µM (inactive) | > 100 µM (inactive) | > 100 µM (inactive) | > 100 µM (inactive) | > 100 µM (inactive) | > 100 µM (inactive) | 90.2 µM (inactive) | > 100 µM (inactive) | > 100 µM (inactive) | > 100 µM (inactive) | > 100 µM (inactive) | > 100 µM (inactive) | > 100 µM (inactive) | > 100 µM (inactive) | > 100 µM (inactive) | 
5 | CN(c1ccccc1Cl)S(=O)(=O)c1ccccc1[N+](=O)[O-] | 28.7 µM (inactive) | 38.9 µM (inactive) | 29 µM (inactive) | 24.7 µM (inactive) | 27.9 µM (inactive) | 41.6 µM (inactive) | 56.8 µM (inactive) | 32.7 µM (inactive) | 96.6 µM (inactive) | 34.3 µM (inactive) | 33.2 µM (inactive) | 45.1 µM (inactive) | 91.6 µM (inactive) | 22.6 µM (inactive) | 55.8 µM (inactive) | 71.4 µM (inactive) | 34.7 µM (inactive) | > 10 µM (inactive) | 39.6 µM (inactive) | 
6 | COc1ccc(/C=N/c2nc3cc4sc(/N=C/c5ccc(OC)cc5)nc4cc3s2)cc1 | 29.7 µM (inactive) | 34.1 µM (inactive) | > 57.9 µM (inactive) | > 81.7 µM (inactive) | 23.4 µM (inactive) | > 49.2 µM (inactive) | > 60.5 µM (inactive) | 10.4 µM (inactive) | > 100 µM (inactive) | 23.1 µM (inactive) | 4.2 µM (inactive) | 70.6 µM (inactive) | > 23.7 µM (inactive) | 27.3 µM (inactive) | 56.8 µM (inactive) | 43.6 µM (inactive) | 24.7 µM (inactive) | 43.7 µM (inactive) | > 86.1 µM (inactive) | 
7 | CC(C)C1CCC(=O)CC1CCCCC1CC(=O)CC1O[Si](C)(C)C(C)(C)C (centres undefined) | 2.95 µM (inactive) | 2.76 µM (inactive) | 4.67 µM (inactive) | 7.53 µM (inactive) | 4.25 µM (inactive) | 7.06 µM (inactive) | 3.83 µM (inactive) | 2.1 µM (inactive) | 6.44 µM (inactive) | 3 µM (inactive) | 0.955 µM (active) | 6.4 µM (inactive) | 17 µM (inactive) | 4.25 µM (inactive) | 2.54 µM (inactive) | 9.62 µM (inactive) | 7.03 µM (inactive) | 4.3 µM (inactive) | 5.92 µM (inactive) | 
